One data set has as its target T1, CYP1A2 (Homo sapiens, UniProt P05177).
T1 sequence (P05177 whole entry): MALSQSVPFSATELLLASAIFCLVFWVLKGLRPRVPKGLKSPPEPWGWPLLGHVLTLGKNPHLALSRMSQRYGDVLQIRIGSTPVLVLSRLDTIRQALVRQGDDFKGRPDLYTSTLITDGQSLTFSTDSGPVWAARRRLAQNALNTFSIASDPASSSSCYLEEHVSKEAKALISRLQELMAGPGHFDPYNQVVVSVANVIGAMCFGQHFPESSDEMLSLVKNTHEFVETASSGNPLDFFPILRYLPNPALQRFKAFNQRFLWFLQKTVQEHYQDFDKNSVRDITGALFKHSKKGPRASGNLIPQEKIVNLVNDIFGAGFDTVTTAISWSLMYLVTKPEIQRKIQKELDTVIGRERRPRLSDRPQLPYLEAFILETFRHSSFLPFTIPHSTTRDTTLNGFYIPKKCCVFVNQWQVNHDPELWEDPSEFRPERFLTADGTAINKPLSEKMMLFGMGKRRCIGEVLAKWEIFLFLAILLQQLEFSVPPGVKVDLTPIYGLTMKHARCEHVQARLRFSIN
Kind of data set: Inhibition of CYP1A2 in human liver microsomes assessed as reduction in phenacetin O-deethylase activity at 10 uM preincubated for 5 mins followed by NADPH addition and measured after 15 mins by LC-MS/MS analysis relative to control. The format is ADME. Conditions: probe phenacetin (O-deethylation).

The next data set deals with CYP2C9 (Homo sapiens, UniProt P11712). Kind of data set: Inhibition of CYP2C9 in human liver microsomes assessed as reduction in tolbutamide 4-hydroxylase activity at 10 uM preincubated for 5 mins followed by NADPH addition and measured after 15 mins by LC-MS/MS analysis relative to control. The class given is ADME. The conditions noted are these: probe tolbutamide (4-hydroxylation). In general terms: Liver microsomes are a subcellular fraction often used to study metabolism.

In another data set the target is CYP2C19 (Homo sapiens, UniProt P33261). As to the kind of experiment: Inhibition of CYP2C19 in human liver microsomes assessed as reduction in S-mephenytoin 4-hydroxylase activity at 10 uM preincubated for 5 mins followed by NADPH addition and measured after 15 mins by LC-MS/MS analysis relative to control. The class given is ADME. The conditions noted are these: probe S-mephenytoin (4-hydroxylation).

The target in another data set is CYP2D6 (Homo sapiens, UniProt P10635). Kind of data set: Inhibition of CYP2D6 in human liver microsomes assessed as reduction in dextromethorphan O-demethylase activity at 10 uM preincubated for 5 mins followed by NADPH addition and measured after 15 mins by LC-MS/MS analysis relative to control. The class given is ADME. The conditions noted are these: probe dextromethorphan (O-demethylation).

Another data set addresses CYP3A4 (Homo sapiens, UniProt P08684). Kind of data set: Inhibition of CYP3A4 in human liver microsomes assessed as reduction in midazolam 1-hydroxylase activity at 10 uM preincubated for 5 mins followed by NADPH addition and measured after 15 mins by LC-MS/MS analysis relative to control. The format is ADME. The conditions noted are these: probe midazolam (1-hydroxylation).

Data set [1] is described as follows: Metabolic stability in human liver microsomes assessed as compound remaining at 1 uM after 30 mins in presence of NADPH regeneration system by LC-MS/MS analysis. The class given is ADME, Microsome. Conditions: read-out: Stability.
Data set [2] is described as follows: Metabolic stability in dog liver microsomes assessed as compound remaining at 1 uM after 30 mins in presence of NADPH regeneration system by LC-MS/MS analysis. The format is ADME, Canis lupus familiaris, Microsome. The conditions noted are these: read-out: Stability.
The nature of data set [3]: Metabolic stability in rat liver microsomes assessed as compound remaining at 1 uM after 30 mins in presence of NADPH regeneration system by LC-MS/MS analysis. The format is ADME, Microsome. The conditions noted are these: read-out: Stability.
The nature of data set [4]: Metabolic stability in mouse liver microsomes assessed as compound remaining at 1 uM after 30 mins in presence of NADPH regeneration system by LC-MS/MS analysis. The class given is ADME, Microsome. The conditions noted are these: read-out: Stability.
Data set [5] is described as follows: Effective permeability of the compound at 10 uM after 5 hrs by PAMPA. The format is ADME. Conditions: read-out: Peff. Background: PAMPA measures passive passage across an artificial lipid membrane.
Data set [6] is described as follows: AUC in Sprague-Dawley rat at 9 to 10 mg/kg, po via gavage by LC-MS/MS analysis. The format is ADME, organism-based. The conditions noted are these: in vivo.
The nature of data set [7]: AUC (0 to infinity) in Sprague-Dawley rat at 1 mg/kg, iv by LC-MS/MS analysis. The format is ADME, organism-based. Also on record: dose 1 mg/kg, time infinity, route intravenous. Conditions: in vivo.
Data set [8] can be described thus: AUC (0 to infinity) in Sprague-Dawley rat at 9 to 10 mg/kg, po via gavage by LC-MS/MS analysis. Conditions: in vivo. The class given is ADME, organism-based.
Data set [9] in a line: Oral bioavailability in Sprague-Dawley rat at 9 to 10 mg/kg via gavage by LC-MS/MS analysis. The class given is ADME, organism-based. The conditions noted are these: in vivo.
A short description of data set [10]: Cmax in Sprague-Dawley rat at 9 to 10 mg/kg, po via gavage by LC-MS/MS analysis. Conditions: in vivo. The format is ADME, organism-based.
Data set [11] can be described thus: Tmax in Sprague-Dawley rat at 9 to 10 mg/kg, po via gavage by LC-MS/MS analysis. The format is ADME, organism-based. The conditions noted are these: in vivo.
Data set [12] is described as follows: Terminal half life in Sprague-Dawley rat at 1 mg/kg, iv by LC-MS/MS analysis. The format is ADME, organism-based. The conditions noted are these: in vivo, read-out: beta t1/2 (converted).
In data set [13] the target is T2, Estrogen-related receptor gamma (Homo sapiens, UniProt P62508).
T2 sequence (P62508 whole entry): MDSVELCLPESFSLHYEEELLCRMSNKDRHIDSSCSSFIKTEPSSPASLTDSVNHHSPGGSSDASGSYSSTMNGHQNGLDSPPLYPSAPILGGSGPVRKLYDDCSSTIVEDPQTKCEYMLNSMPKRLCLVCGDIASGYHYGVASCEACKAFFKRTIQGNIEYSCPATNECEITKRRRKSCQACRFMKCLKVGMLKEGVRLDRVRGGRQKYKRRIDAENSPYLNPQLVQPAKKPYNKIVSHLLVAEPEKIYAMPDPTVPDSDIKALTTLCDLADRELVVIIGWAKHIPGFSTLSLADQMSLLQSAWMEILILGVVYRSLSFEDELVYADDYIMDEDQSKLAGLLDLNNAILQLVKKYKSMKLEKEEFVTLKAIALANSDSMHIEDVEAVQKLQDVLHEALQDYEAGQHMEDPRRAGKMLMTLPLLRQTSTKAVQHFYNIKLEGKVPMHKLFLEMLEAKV

The target of data set [14] is T3, Steroid hormone receptor ERR1 (Homo sapiens, UniProt P11474).
T3 sequence (P11474 whole entry): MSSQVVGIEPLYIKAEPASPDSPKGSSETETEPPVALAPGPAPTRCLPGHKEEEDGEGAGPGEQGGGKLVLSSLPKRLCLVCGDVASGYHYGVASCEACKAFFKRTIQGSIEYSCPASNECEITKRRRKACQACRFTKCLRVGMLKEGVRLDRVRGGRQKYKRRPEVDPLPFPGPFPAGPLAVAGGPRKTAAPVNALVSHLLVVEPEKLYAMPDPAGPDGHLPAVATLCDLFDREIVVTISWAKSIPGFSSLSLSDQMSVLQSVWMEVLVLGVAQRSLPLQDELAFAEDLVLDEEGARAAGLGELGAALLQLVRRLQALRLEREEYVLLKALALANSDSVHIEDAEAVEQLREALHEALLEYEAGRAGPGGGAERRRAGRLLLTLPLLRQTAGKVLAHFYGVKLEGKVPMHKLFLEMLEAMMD

A further data set has as its target T4, Estrogen receptor (Homo sapiens, UniProt P03372).
T4 sequence (P03372 whole entry): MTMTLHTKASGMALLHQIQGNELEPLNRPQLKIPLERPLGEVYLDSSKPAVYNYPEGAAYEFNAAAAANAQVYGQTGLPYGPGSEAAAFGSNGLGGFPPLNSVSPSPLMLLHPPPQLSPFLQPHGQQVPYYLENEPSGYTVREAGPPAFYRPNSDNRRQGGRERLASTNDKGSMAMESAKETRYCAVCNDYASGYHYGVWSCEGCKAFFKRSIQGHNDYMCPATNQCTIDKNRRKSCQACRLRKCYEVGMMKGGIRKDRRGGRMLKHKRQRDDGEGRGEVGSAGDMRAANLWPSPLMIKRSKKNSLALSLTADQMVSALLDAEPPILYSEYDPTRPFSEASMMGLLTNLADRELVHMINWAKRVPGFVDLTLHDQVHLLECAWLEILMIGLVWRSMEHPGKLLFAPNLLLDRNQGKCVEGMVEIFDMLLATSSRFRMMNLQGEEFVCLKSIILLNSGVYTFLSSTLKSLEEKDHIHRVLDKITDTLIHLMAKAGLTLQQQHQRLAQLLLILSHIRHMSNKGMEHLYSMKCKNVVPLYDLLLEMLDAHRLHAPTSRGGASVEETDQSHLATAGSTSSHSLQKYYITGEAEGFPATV

Data set [15] concerns the target T2, Estrogen-related receptor gamma. The source holds these as a separate data set.
Description: Inverse agonist activity at CMX-gal4-fused ERRgamma (unknown origin) transfected in human AD293 cells co-expressing CMV-beta galactosidase assessed as effect on beta-galactosidase activity after 24 hrs by luciferase reporter gene assay
A short description of data set [16]: in vivo. The conditions noted are these: Sprague-Dawley, rat, iv, 1 mg/kg.
A short description of data set [17]: in vivo. The conditions noted are these: Sprague-Dawley, rat, plasma, iv, 1 mg/kg.
Data set [18] is described as follows: in vivo. The conditions noted are these: Sprague-Dawley, rat, iv, 1 mg/kg. The source holds these as a separate data set.
Description: Volume of distribution at steady state in Sprague-Dawley rat at 1 mg/kg, iv by LC-MS/MS analysis

Experimental findings from ChEMBL document CHEMBL4411321, “Discovery of Potent, Selective, and Orally Bioavailable Estrogen-Related Receptor-γ Inverse Agonists To Restore the Sodium Iodide Symporter Function in Anaplastic Thyroid Cancer” (J Med Chem, 2019) are described below.

CYP3A4, sequence (P08684 whole entry): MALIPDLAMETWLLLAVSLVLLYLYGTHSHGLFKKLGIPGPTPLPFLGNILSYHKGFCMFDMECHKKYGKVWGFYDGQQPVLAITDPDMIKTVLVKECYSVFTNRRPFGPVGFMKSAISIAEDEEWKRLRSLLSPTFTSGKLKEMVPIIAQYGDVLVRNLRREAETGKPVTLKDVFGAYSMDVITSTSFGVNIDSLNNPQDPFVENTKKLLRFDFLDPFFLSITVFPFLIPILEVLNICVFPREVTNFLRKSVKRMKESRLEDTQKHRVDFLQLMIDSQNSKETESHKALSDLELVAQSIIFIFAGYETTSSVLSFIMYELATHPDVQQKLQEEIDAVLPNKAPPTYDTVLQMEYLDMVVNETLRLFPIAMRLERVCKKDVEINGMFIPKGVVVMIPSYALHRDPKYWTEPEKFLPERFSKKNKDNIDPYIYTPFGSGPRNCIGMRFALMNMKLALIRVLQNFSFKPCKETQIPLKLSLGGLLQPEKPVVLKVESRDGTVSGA
CYP2C19, sequence (P33261 whole entry): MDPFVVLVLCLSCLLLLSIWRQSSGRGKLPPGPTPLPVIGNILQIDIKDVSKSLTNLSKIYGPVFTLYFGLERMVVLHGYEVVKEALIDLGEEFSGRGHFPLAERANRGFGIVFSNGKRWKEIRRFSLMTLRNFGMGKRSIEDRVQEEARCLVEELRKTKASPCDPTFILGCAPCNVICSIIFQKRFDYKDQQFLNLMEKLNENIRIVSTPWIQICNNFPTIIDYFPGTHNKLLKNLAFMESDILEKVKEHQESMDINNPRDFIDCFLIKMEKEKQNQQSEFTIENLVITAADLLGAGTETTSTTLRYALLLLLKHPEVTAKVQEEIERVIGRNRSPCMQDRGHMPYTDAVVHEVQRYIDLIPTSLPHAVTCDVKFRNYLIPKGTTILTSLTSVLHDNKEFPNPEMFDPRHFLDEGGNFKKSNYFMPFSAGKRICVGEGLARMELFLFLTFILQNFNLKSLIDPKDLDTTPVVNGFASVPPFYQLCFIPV
CYP2C9, sequence (P11712 whole entry): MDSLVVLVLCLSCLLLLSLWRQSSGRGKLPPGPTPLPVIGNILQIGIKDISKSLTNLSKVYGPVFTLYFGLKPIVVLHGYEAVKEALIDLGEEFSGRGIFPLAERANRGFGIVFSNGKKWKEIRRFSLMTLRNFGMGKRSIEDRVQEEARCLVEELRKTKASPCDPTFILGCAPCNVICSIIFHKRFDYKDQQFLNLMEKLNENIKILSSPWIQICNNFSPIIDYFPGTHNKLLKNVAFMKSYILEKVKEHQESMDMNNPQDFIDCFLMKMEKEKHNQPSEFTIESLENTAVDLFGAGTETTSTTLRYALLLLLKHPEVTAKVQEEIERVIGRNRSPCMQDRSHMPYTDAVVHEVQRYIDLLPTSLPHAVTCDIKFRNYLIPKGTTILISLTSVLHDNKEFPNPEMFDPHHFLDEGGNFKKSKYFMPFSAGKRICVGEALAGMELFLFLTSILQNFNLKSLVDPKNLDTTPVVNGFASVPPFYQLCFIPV
CYP2D6, sequence (P10635 whole entry): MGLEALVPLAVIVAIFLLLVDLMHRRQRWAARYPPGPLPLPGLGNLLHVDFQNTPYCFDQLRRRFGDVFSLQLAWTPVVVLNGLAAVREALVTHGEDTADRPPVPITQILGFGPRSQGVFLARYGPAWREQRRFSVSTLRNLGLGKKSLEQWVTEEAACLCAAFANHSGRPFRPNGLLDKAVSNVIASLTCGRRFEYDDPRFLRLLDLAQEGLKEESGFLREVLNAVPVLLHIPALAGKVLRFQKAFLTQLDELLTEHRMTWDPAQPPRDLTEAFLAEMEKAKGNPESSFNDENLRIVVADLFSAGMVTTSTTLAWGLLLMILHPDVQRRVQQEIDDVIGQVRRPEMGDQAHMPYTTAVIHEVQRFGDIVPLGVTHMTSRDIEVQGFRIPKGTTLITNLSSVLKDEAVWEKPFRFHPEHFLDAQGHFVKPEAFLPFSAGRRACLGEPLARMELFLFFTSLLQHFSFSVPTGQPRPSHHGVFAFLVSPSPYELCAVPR

One may read the inhibition as how much of the control response was suppressed. In general, AUC refers to the area under the concentration-time curve, a measure of exposure. Lower therefore signals less exposure. A word on the AUC(0-inf): it is total exposure, with the tail of the curve extrapolated. A high value points to more exposure. The term bioavailability denotes dose-corrected exposure relative to a reference, in per cent. Low values mean little systemic uptake, high ones much systemic uptake. As a reminder, the Cmax is the maximum level reached in the sampled fluid or tissue. In general, Tmax refers to the time at which the peak concentration occurs. A word on the IC50: it is the concentration that gives 50% inhibition. In general, clearance refers to the rate of elimination divided by the concentration. A lower clearance goes with inefficient removal. By Vd is commonly meant the apparent volume that relates the amount in the body to the concentration in plasma or blood. High values mean extensive tissue distribution, low ones confinement near the circulation. `CCN1CCN(c2ccc(/C(=C(/CCCO)c3ccccc3)c3ccc(C)cc3)cc2)CC1.Cl.Cl`: the inhibition at 0.25 h, 10 µM came out at 0% on CYP1A2; 13% at CYP2C9; 26% on CYP2C19; 13.4% on CYP2D6; 22.4% on CYP3A4. Moreover, the remaining at 0.5 h, 1 µM in data set [1] stood at 67.9%; in data set [2], 58%; in data set [3], 62.8%; in [4], 54.9%. In addition, in data set [5], the Papp at 5 h, 10 µM turned out to be 4.47 ×10⁻⁶ cm/s. In addition, the AUC amounted to 1.07 µM·h in data set [6] and 0.55 µM·h in the data set “in vivo [16]”. For the same molecule, the AUC(0-inf) in data set [7] came out at 0.6 µM·h; in data set [8] it was 1.61 µM·h. The molecule also came in with a bioavailability in [9] of 19.6%. Also, the Cmax in [10] was 210 nM. The Tmax in data set [11] stood at 3 h. Also, the half-life in data set [12] is 3.2 h. Also, the IC50 in [13] is 25 nM; in data set [14] it was over 10000 nM; against Estrogen receptor, over 10000 nM; in data set [15], 18 nM. In the data set “in vivo [17]”, this molecule yielded a clearance of 59 mL/min/kg. Besides, the Vd in the data set “in vivo [18]” worked out at 9.8 L/kg.
